From patent US20160304556A1, “[…] ACTIVE COMPOUNDS AND THEIR METHODS OF USE” (AGIOS PHARMACEUTICALS, INC, priority 2012, published 2016)

Legend:
IDH1 R132C = IDH1 R132C (Homo sapiens, UniProt O75874, R132C); test: In vitro NADPH depletion assay for IDH1m R132C inhibitors; format: biochemical; conditions: enzyme, diaphorase/resazurin readout, read-out: IDH R132C IC50
Method: (§1) A test compound is prepared as 10 mM stock in DMSO and diluted to 50× final concentration in DMSO, for a 50 μl reaction mixture. IDH enzyme activity converting alpha-ketoglutarate to 2-hydroxyglutaric acid is measured using a NADPH depletion assay. In the assay the remaining cofactor is measured at the end of the reaction with the addition of a catalytic excess of diaphorase and resazurin, to generate a fluorescent signal in proportion to the amount of NADPH remaining. IDH1-R132 homodimer enzyme is diluted to […] in 40 μl of Assay Buffer(150 mM NaCl, 20 mM Tris-Cl pH 7.5, 10 mM MgCl2, 0.05% BSA, 2 mM b-mercaptoethanol); 1 μl of test compound dilution in DMSO is added and the mixture is incubated for 60 minutes at room temperature. The reaction is started with the addition of 10 μl of Substrate Mix ([…], 5 mM alpha-ketoglutarate, in Assay Buffer) and the mixture is incubated for 90 minutes at room temperature. The reaction is terminated with the addition of 25 μl of Detection Buffer (36 μg/ml diaphorase, […], in 1× Assay Buffer), and is incubated for 1 minute before reading on a SpectraMax platereader at Ex544/Em590.
Compounds are assayed for their activity against IDH1 R132C following the same assay as above with the following modifications: Assay Buffer is (50 mM potassium phosphate, pH 6.5; 40 mM sodium carbonate, 5 mM MgCl2, 10% glycerol, 2 mM b-mercaptoethanol, and 0.03% BSA). The concentration of NADPH and alpha-ketoglutarate in the Substrate Buffer is 20 μM and 1 mM, respectively.
(§2) Representative compounds of formula I set forth in Table 1 were tested in this assay and the results are set forth below in Table 3.

IDH1 R132H = IDH1 R132H (Homo sapiens, UniProt O75874, R132H); test: In vitro NADPH depletion assay for IDH1m R132H inhibitors; format: biochemical; conditions: enzyme, diaphorase/resazurin readout, read-out: IDH R132H IC50
Sequence of IDH1 R132H (O75874 whole entry R132H): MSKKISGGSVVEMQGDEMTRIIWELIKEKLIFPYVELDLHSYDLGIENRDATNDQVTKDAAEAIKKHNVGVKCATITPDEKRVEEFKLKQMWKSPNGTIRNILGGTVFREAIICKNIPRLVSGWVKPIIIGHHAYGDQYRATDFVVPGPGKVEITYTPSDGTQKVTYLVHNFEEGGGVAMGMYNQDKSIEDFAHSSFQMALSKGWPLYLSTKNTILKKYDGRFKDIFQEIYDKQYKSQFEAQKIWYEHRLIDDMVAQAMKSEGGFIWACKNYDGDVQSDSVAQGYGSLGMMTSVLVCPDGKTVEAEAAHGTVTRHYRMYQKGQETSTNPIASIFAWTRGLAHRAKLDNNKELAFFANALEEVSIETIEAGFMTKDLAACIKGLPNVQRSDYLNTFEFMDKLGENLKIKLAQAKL
Method: as §1, §2

HT1080 cells = test: Cellular assay, inhibition of 2-HG production (LC-MS) in HT1080 cells; format: cell-based; conditions: Homo sapiens, HT-1080, 48 hours, LC-MS of media
Method: Cells (HT1080 or U87MG) are grown in T125 flasks in DMEM containing 10% FBS, 1× penicillin/streptomycin and 500 ug/mL G418 (present in U87MG cells only). They are harvested by trypsin and seeded into 96 well white bottom plates at a density of 5000 cell/well in 100 μl/well in DMEM with 10% FBS. No cells are placed in columns 1 and 12. Cells are incubated overnight at 37° C. in 5% CO2. The next day test compounds are made up at 2× the final concentration and 100 μl are added to each cell well. The final concentration of DMSO is 0.2% and the DMSO control wells are plated in row G. The plates are then placed in the incubator for 48 hours. At 48 hours, 100 μl of media is removed from each well and analyzed by LC-MS for 2-HG concentrations. The cell plate is placed back in the incubator for another 24 hours. At 72 hours post compound addition, 10 mL/plate of Promega Cell Titer Glo reagent is thawed and mixed. The cell plate is removed from the incubator and allowed to equilibrate to room temperature. Then 100 μl of Promega Cell Titer Glo reagent is added to each well of media. The cell plate is then placed on an orbital shaker for 10 minutes and then allowed to sit at room temperature for 20 minutes. The plate is then read for luminescence with an integration time of 500 ms.
The IC50 for inhibition of 2-HG production (concentration of test compound to reduce 2HG production by 50% compared to control) in these two cell lines for various compounds of formula I is set forth in Table 2 above.

Sequence of IDH1 R132C (O75874 whole entry R132C): as the sequence (O75874 whole entry R132H) above, with H132C counted along it

In the case of COC(=O)N1C[C@@H](F)C[C@H]1C(=O)N(c1cccc(F)c1)[C@H](C(=O)NC1CC(F)(F)C1)c1ccccc1Cl [Compound 70], the IC50 (IDH1 R132C) is reported as ≤ 100 nM, the IC50 (IDH1 R132H) is reported as ≤ 100 nM and the IC50 (HT1080 cells) is reported as 100 to 500 nM.

With COC(=O)NCC(=O)N(c1cccc(F)c1)C(C(=O)NC1CC(F)(F)C1)c1ccccc1Cl (centres unmarked) [Compound 73, methyl 2-((1-(2-chlorophenyl)-2-(3,3-difluorocyclobutylamino)-2-oxoethyl)(3-fluorophenyl)amino)-2-oxoethylcarbamate] the IC50 (IDH1 R132C) was 100 to 500 nM, the IC50 (IDH1 R132H) was 100 to 500 nM and the IC50 (HT1080 cells) was 500 to 1000 nM.

In the case of C[C@H]1CC[C@@H](C(=O)N(c2cccc(F)c2)[C@@H](C(=O)NC2CCC(F)(F)CC2)c2ccccc2Cl)N1c1ncccn1 [Compound 110, (2S,5S)—N—((R)-1-(2-chlorophenyl)-2-(4,4-difluorocyclohexylamino)-2-oxoethyl)-N-(3-fluorophenyl)-5-methyl-1-(pyrimidin-2-yl)pyrrolidine-2-carboxamide], the IC50 (IDH1 R132C) is reported as ≤ 100 nM, the IC50 (IDH1 R132H) is reported as ≤ 100 nM and the IC50 (HT1080 cells) is reported as 100 to 500 nM.

With COC(=O)N1CCOC[C@H]1C(=O)N(c1cccc(F)c1)[C@H](C(=O)NC1CCCCC1)c1ccccc1C [Compound 23] the IC50 (IDH1 R132C) was ≤ 100 nM and the IC50 (HT1080 cells) was ≤ 100 nM.

For COC(=O)N1[C@@H](C(=O)N(c2cccc(F)c2)[C@H](C(=O)NC2CC(F)(F)C2)c2ccccc2Cl)CCC1(C)C (single isomer, unassigned) [Compound 114], the IC50 (IDH1 R132C) was ≤ 100 nM, the IC50 (IDH1 R132H) was 100 to 500 nM and the IC50 (HT1080 cells) was 100 to 500 nM.

For COC(=O)NCC(=O)N(c1cccc(F)c1)[C@H](C(=O)N[C@H]1CCCCC1(F)F)c1ccccc1Cl [Compound 82], the IC50 (IDH1 R132C) was ≤ 100 nM, the IC50 (IDH1 R132H) was ≤ 100 nM and the IC50 (HT1080 cells) was 100 to 500 nM.

With COC(=O)N1CC[C@H]1C(=O)N(c1cccc(F)c1)[C@H](C(=O)NC1CC(F)(F)C1)c1ccccc1Cl [Compound 106] the IC50 (IDH1 R132C) was 100 to 500 nM, the IC50 (IDH1 R132H) was ≤ 100 nM and the IC50 (HT1080 cells) was 100 to 500 nM.

With COC(=O)N1CCN(C(C)=O)C[C@H]1C(=O)N(c1cccc(F)c1)[C@H](C(=O)NC1CC(F)(F)C1)c1ccccc1Cl [Compound 68, (S)-Methyl 4-acetyl-2-(((S)-1-(2-chlorophenyl)-2-(3,3-difluorocyclobutylamino)-2-oxoethyl) (3-fluorophenyl)carbamoyl)piperazine-1-carboxylate] the IC50 (IDH1 R132C) was ≤ 100 nM, the IC50 (IDH1 R132H) was ≤ 100 nM and the IC50 (HT1080 cells) was 100 to 500 nM.

With O=C(NC1CC(F)(F)C1)C(c1ccccc1Cl)N(C(=O)Cc1cccnc1)c1cccc(F)c1 (centres unmarked) [Compound 86] the IC50 (IDH1 R132C) was ≤ 100 nM, the IC50 (IDH1 R132H) was ≤ 100 nM and the IC50 (HT1080 cells) was 100 to 500 nM.

C[C@H]1CC[C@@H](C(=O)N(c2cccc(F)c2)[C@H](C(=O)NC2CC(F)(F)C2)c2ccccc2Cl)N1c1ncccn1 [Compound 113, (2S,5S)—N—((S)-1-(2-chlorophenyl)-2-(3,3-difluorocyclobutylamino)-2-oxoethyl)-N-(3-fluorophenyl)-5-methyl-1-(pyrimidin-2-yl)pyrrolidine-2-carboxamide] was tested, and the IC50 (IDH1 R132C) was ≤ 100 nM, the IC50 (IDH1 R132H) was ≤ 100 nM and the IC50 (HT1080 cells) was 100 to 500 nM.

COC(=O)N[C@@H](CO)C(=O)N(c1cccc(F)c1)C(C(=O)NC1CCC(F)(F)CC1)c1ccccc1Cl (some centres unmarked) [Compound 101] gave an IC50 (IDH1 R132C) of 100 to 500 nM, an IC50 (IDH1 R132H) of 100 to 500 nM and an IC50 (HT1080 cells) of 1000 to 2000 nM.

For COC(=O)NCC(=O)N(c1cccc(F)c1)[C@H](C(=O)N[C@H]1CCC(F)(F)C1)c1ccccc1Cl [Compound 97], the IC50 (IDH1 R132C) was 100 to 500 nM, the IC50 (IDH1 R132H) was 100 to 500 nM and the IC50 (HT1080 cells) was 500 to 1000 nM.

With C=CC(=O)Nc1cccc(N(C(=O)Cc2cccnc2)C(C(=O)NC2CC(F)(F)C2)c2ccccc2Cl)c1 (centres unmarked) [Compound 88, N-(3-(N-(1-(2-chlorophenyl)-2-(3,3-difluorocyclobutylamino)-2-oxoethyl)-2-(pyridin-3-yl)acetamido)phenyl)acrylamide] the IC50 (IDH1 R132C) was 100 to 500 nM, the IC50 (IDH1 R132H) was 500 to 1000 nM and the IC50 (HT1080 cells) was 1000 to 2000 nM.

For O=C1C[C@@H](C(=O)N(c2cccc(F)c2)[C@H](C(=O)NC2CC(F)(F)C2)c2ccccc2Cl)N(c2ncccn2)C1 [Compound 107], the IC50 (IDH1 R132C) was ≤ 100 nM, the IC50 (IDH1 R132H) was ≤ 100 nM and the IC50 (HT1080 cells) was ≤ 100 nM.
